The values that follow come from ChEMBL document CHEMBL1132041, “Inhibition of human telomerase by PNA-cationic peptide conjugates” (Bioorg Med Chem Lett, 1999).

Each structure is given as a SMILES string.

For this test, the target named is Telomerase reverse transcriptase (Homo sapiens, UniProt O14746). The experiment in a line: Inhibitory activity against human telomerase.
Telomerase reverse transcriptase, sequence (O14746 whole entry): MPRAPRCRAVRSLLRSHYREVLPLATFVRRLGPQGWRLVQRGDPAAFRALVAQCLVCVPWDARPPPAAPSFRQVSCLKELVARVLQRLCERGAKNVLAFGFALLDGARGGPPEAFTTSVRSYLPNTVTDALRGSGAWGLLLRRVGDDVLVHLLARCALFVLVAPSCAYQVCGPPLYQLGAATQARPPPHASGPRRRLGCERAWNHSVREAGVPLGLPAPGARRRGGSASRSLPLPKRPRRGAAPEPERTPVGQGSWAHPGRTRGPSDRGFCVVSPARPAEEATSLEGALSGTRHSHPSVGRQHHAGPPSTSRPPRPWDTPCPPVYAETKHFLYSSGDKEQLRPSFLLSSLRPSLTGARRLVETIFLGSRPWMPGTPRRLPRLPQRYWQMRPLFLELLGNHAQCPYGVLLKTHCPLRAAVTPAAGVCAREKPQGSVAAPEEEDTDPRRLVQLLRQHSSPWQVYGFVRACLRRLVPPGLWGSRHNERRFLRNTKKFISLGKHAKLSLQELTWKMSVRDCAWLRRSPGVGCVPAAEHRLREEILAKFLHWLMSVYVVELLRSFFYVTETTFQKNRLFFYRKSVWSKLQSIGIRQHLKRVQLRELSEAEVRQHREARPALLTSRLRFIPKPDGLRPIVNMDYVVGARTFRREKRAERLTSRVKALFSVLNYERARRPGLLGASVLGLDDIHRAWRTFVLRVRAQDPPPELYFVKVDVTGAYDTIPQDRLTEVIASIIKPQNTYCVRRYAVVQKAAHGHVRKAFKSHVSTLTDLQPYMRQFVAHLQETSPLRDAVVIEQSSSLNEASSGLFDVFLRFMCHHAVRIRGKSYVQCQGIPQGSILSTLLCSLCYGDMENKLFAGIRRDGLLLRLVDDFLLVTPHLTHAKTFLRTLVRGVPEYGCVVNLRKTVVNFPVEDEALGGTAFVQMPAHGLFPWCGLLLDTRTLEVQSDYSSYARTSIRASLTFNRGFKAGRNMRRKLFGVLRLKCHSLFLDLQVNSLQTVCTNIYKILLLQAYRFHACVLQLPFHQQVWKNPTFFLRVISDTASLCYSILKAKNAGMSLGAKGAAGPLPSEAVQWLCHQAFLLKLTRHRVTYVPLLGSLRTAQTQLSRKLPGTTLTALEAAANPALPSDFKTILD

The term IC50 denotes the concentration that gives 50% inhibition. Read a low IC50 as higher potency. `Cc1cn([C@H]2C[C@H](OP(=O)(O)OC[C@H]3O[C@@H](n4cnc5c(N)ncnc54)C[C@@H]3OP(=O)(O)OC[C@H]3O[C@@H](N4C=NC5C(=O)N=C(N)N=C54)C[C@@H]3OP(=O)(O)OC[C@H]3O[C@@H](N4C=NC5C(=O)N=C(N)N=C54)C[C@@H]3OP(=O)(O)OC[C@H]3O[C@@H](N4C=NC5C(=O)N=C(NC(=O)O)N=C54)C[C@@H]3O)[C@@H](COP(=O)(O)ON)O2)c(=O)[nH]c1=O` (some centres undefined) came in with an IC50 of 1.16 µM.

In turn, `Cc1cn(C2CC(OP(=O)(O)OCC3OC(n4cnc5c(N)ncnc54)CC3OP(=O)(O)OCC3OC(n4cnc5c(=O)[nH]c(N)nc54)CC3OP(=O)(O)OCC3OC(n4cnc5c(=O)[nH]c(N)nc54)CC3OP(=O)(O)OCC3OC(n4cnc5c(=O)[nH]c(N)nc54)CC3O)C(COP(=O)(O)C(=O)[C@H](CS)NC(=O)[C@H](CCCCN)NC(=O)[C@H](CCCCN)NC(=O)[C@H](CCCCN)NC(=O)[C@H](CCCCN)NC(=O)[C@H](CCCCN)NC(=O)[C@H](C)N)O2)c(=O)[nH]c1=O` (some centres undefined) displayed an IC50 of 0.29 µM. As for `Cc1cn(C2CC(OP(=O)(O)OCC3OC(n4cnc5c(N)ncnc54)CC3OP(=O)(O)OCC3OC(n4cnc5c(=O)[nH]c(N)nc54)CC3OP(=O)(O)OCC3OC(n4cnc5c(=O)[nH]c(N)nc54)CC3OP(=O)(O)OCC3OC(n4cnc5c(=O)[nH]c(N)nc54)CC3O)C(COP(=O)(O)C(=O)[C@H](CS)NC(=O)[C@H](CCCNC(=N)N)NC(=O)[C@H](CCCNC(=N)N)NC(=O)[C@H](CCCNC(=N)N)NC(=O)[C@H](CCCNC(=N)N)NC(=O)[C@H](CCCNC(=N)N)NC(=O)[C@H](C)N)O2)c(=O)[nH]c1=O` (some centres undefined), the figure is 0.14 µM. `Cc1cn(C2CC(OP(=O)(O)OCC3OC(n4cnc5c(N)ncnc54)CC3OP(=O)(O)OCC3OC(n4cnc5c(N)nc(N)nc54)CC3OP(=O)(O)OCC3OC(n4cnc5c(O)nc(N)nc54)CC3OP(=O)(O)OCC3OC(n4cnc5c(O)nc(N)nc54)CC3O)C(COP(=O)(O)C(=O)[C@H](CS)NC(=O)[C@H](CCCN)NC(=O)[C@H](CCCN)NC(=O)[C@H](CCCN)NC(=O)[C@H](CCCN)NC(=O)[C@H](CCCN)NC(=O)[C@H](C)N)O2)c(=O)[nH]c1=O` (some centres undefined): the midpoint of inhibition, the IC50, lay at 0.45 µM.
